The values that follow are results of earlier work, collected in publication PMC7904743, “WIDOCK: a reactive docking protocol for virtual screening of covalent inhibitors” (Journal of Computer-Aided Molecular Design, 2021).

The conditions of series [1]: thiol reactivity, cited from earlier work.
For series [2], the system named is NUDT7. Particulars: protein labeling at 200 μM; experimental actives if % labeling higher than 50%; cited from earlier work.
Series [3] deals with OTUB2. Particulars: OTUB2 protein labeling; experimental actives if % labeling higher than 50%; cited from earlier work.
The mark [4] stands for this setting: natural log of average kinetic rate constant.
The mark [5] stands for this setting: natural log of average rate constant.

Read-outs that look alike come from different tables or passages of the source.

`CN(Cc1cccc(C(F)(F)F)c1)C(=O)CCl` [PCM-0102987, CN(Cc1cccc(C(F)(F)F)c1)C(=O)CCl]: the “ln(avg k)” value in series [1] (setting [4]) and in series [1] (setting [5]) was -15.786 throughout. Besides, the NUDT7 % labeling in series [2] was 9%. For the same molecule, the OTUB2 % labeling in series [3] is recorded as 0%.
As for `CN(Cc1nc2ccccc2s1)C(=O)CCl` [PCM-0102988, CN(Cc1nc2ccccc2s1)C(=O)CCl], the “ln(avg k)” value in series [1] (setting [4]) and in series [1] (setting [5]) was -15.687 each time. Also, the NUDT7 % labeling in series [2] is listed as 30%. Also, in series [3], the OTUB2 % labeling is 0%.
As to `O=C(CCl)Nc1ccc(Br)cc1` [PCM-0102992, O=C(CCl)Nc1ccc(Br)cc1], the “ln(avg k)” value in series [1] (setting [4]) and in series [1] (setting [5]) was -15.800 throughout. The NUDT7 % labeling in series [2] was 11%. The OTUB2 % labeling in series [3] is listed as 8%.
Consider `N#CC1(NC(=O)CCl)CCCCC1` [PCM-0102993, N#CC1(NC(=O)CCl)CCCCC1], for which the “ln(avg k)” value in series [1] (setting [4]) and in series [1] (setting [5]) was -16.137 in each case. Also, the NUDT7 % labeling in series [2] is 8%. Further, the OTUB2 % labeling in series [3] is given as 0%.
For `Cc1cc(C)c(NC(=O)CCl)c(Cl)c1` [PCM-0102994, Cc1cc(C)c(NC(=O)CCl)c(Cl)c1], the “ln(avg k)” value in series [1] (setting [4]) and in series [1] (setting [5]) was -16.989 each time. In addition, the NUDT7 % labeling in series [2] was 26%. In series [3], the OTUB2 % labeling was 0%.
On to `O=C(CCl)N1CCN(C(=O)C2COc3ccccc3O2)CC1` (centres unmarked) [PCM-0102996, O=C(CCl)N1CCN(C(=O)C2COc3ccccc3O2)CC1], for which the “ln(avg k)” value in series [1] (setting [4]) and in series [1] (setting [5]) was -15.549 throughout. In addition, the NUDT7 % labeling in series [2] was 0%. Moreover, the OTUB2 % labeling in series [3] is recorded as 13%.
With `O=C(CCl)NNC(=O)CC1CCS(=O)(=O)C1` (centres unmarked) [PCM-0102998, O=C(CCl)NNC(=O)CC1CCS(=O)(=O)C1], the “ln(avg k)” value in series [1] (setting [4]) and in series [1] (setting [5]) was -16.898 throughout. Besides, the NUDT7 % labeling in series [2] was 0%. The OTUB2 % labeling in series [3] is given as 69%.
Regarding `O=C(CCl)Nc1ccc(F)cc1` [PCM-0103002, O=C(CCl)Nc1ccc(F)cc1], the “ln(avg k)” value in series [1] (setting [4]) and in series [1] (setting [5]) was -16.182 each time. In addition, the NUDT7 % labeling in series [2] is 0%. Moreover, in series [3], the OTUB2 % labeling is 30%.
For `O=C(CCl)Nc1ccc(F)cc1F` [PCM-0103004, O=C(CCl)Nc1ccc(F)cc1F], the “ln(avg k)” value in series [1] (setting [4]) and in series [1] (setting [5]) was -15.968 throughout. In addition, the NUDT7 % labeling in series [2] is on record as 0%. Further, the OTUB2 % labeling in series [3] was 26%.
As to `O=C(CCl)N1CCN(Cc2ccco2)CC1` [PCM-0103006, O=C(CCl)N1CCN(Cc2ccco2)CC1], the “ln(avg k)” value in series [1] (setting [4]) and in series [1] (setting [5]) was -15.615 each time. Also, in series [2], the NUDT7 % labeling was 0%. Besides, the OTUB2 % labeling in series [3] is listed as 0%.
`O=C1CN(C(=O)CCl)CCN1` [PCM-0103008, O=C1CN(C(=O)CCl)CCN1]: the “ln(avg k)” value in series [1] (setting [4]) and in series [1] (setting [5]) was -15.775 in each case. Besides, the NUDT7 % labeling in series [2] was 0%. The OTUB2 % labeling in series [3] is 0%.
Consider `CC(=O)c1cc2c(cc1NC(=O)CCl)OCO2` [PCM-0103010, CC(=O)c1cc2c(cc1NC(=O)CCl)OCO2], for which the “ln(avg k)” value in series [1] (setting [4]) and in series [1] (setting [5]) was -17.333 in each case. The NUDT7 % labeling in series [2] is given as 14%. Further, the OTUB2 % labeling in series [3] is given as 0%.
Turning to `O=C(CCl)NCC#Cc1cccc(C(F)(F)F)c1` [PCM-0103011, O=C(CCl)NCC#Cc1cccc(C(F)(F)F)c1], the “ln(avg k)” value in series [1] (setting [4]) and in series [1] (setting [5]) was -16.650 in each case. Moreover, the NUDT7 % labeling in series [2] is on record as 0%. For the same molecule, the OTUB2 % labeling in series [3] was 84%.
`NS(=O)(=O)c1ccc(Cl)c(NC(=O)CCl)c1` [PCM-0103012, NS(=O)(=O)c1ccc(Cl)c(NC(=O)CCl)c1]: the “ln(avg k)” value in series [1] (setting [4]) and in series [1] (setting [5]) was -15.947 throughout. The NUDT7 % labeling in series [2] is 0%. In series [3], the OTUB2 % labeling is on record as 10%.
Turning to `Cc1ccccc1C(=O)NC1CCN(C(=O)CCl)CC1` [PCM-0103013, Cc1ccccc1C(=O)NC1CCN(C(=O)CCl)CC1], the “ln(avg k)” value in series [1] (setting [4]) and in series [1] (setting [5]) was -15.378 each time. Also, the NUDT7 % labeling in series [2] is listed as 0%. In series [3], the OTUB2 % labeling was 0%.
Take `CC(C)C(=O)NNC(=O)CCl` [PCM-0103014, CC(C)C(=O)NNC(=O)CCl]: the “ln(avg k)” value in series [1] (setting [4]) and in series [1] (setting [5]) was -17.522 each time. In addition, the NUDT7 % labeling in series [2] is recorded as 0%. Also, the OTUB2 % labeling in series [3] is on record as 9%.
Take `O=C(CCl)N1CCN(c2ccccc2[N+](=O)[O-])CC1` [PCM-0103016, O=C(CCl)N1CCN(c2ccccc2[N+](=O)[O-])CC1]: the “ln(avg k)” value in series [1] (setting [4]) and in series [1] (setting [5]) was -15.523 each time. The NUDT7 % labeling in series [2] is listed as 27%. In series [3], the OTUB2 % labeling is given as 9%.
As for `Cc1ccc(CN(C)C(=O)CCl)cc1` [PCM-0103017, Cc1ccc(CN(C)C(=O)CCl)cc1], the “ln(avg k)” value in series [1] (setting [4]) and in series [1] (setting [5]) was -16.138 each time. For the same molecule, the NUDT7 % labeling in series [2] is recorded as 9%. The OTUB2 % labeling in series [3] is reported as 0%.
Consider `CS(=O)(=O)c1ccc(F)c(NC(=O)CCl)c1` [PCM-0103018, CS(=O)(=O)c1ccc(F)c(NC(=O)CCl)c1], for which the “ln(avg k)” value in series [1] (setting [4]) and in series [1] (setting [5]) was -15.950 each time. Moreover, in series [2], the NUDT7 % labeling is 0%. The OTUB2 % labeling in series [3] is 16%.
`CC1CCC(N(C)C(=O)CCl)CC1` (centres unmarked) [PCM-0103019, CC1CCC(N(C)C(=O)CCl)CC1]: the “ln(avg k)” value in series [1] (setting [4]) and in series [1] (setting [5]) was -16.049 in each case. The NUDT7 % labeling in series [2] is given as 0%. Also, in series [3], the OTUB2 % labeling is reported as 0%.
`O=C(CCl)NCC1Cc2ccccc2O1` (centres unmarked) [PCM-0103020, O=C(CCl)NCC1Cc2ccccc2O1]: the “ln(avg k)” value in series [1] (setting [4]) and in series [1] (setting [5]) was -17.072 each time. Besides, the NUDT7 % labeling in series [2] is given as 0%. The OTUB2 % labeling in series [3] was 0%.
As to `O=C(CCl)N1CCN(c2ncc(Cl)cc2Cl)CC1` [PCM-0103022, O=C(CCl)N1CCN(c2ncc(Cl)cc2Cl)CC1], the “ln(avg k)” value in series [1] (setting [4]) and in series [1] (setting [5]) was -15.906 in each case. The NUDT7 % labeling in series [2] is listed as 22%. The OTUB2 % labeling in series [3] is 0%.
Turning to `CC(C)N(C(=O)CCl)C(C)C` [PCM-0103023, CC(C)N(C(=O)CCl)C(C)C], the “ln(avg k)” value in series [1] (setting [4]) and in series [1] (setting [5]) was -17.155 throughout. Also, the NUDT7 % labeling in series [2] was 0%. Also, the OTUB2 % labeling in series [3] was 0%.
In the case of `O=C(CCl)N1CCc2sccc2C1c1ccccc1` (centres unmarked) [PCM-0103024, O=C(CCl)N1CCc2sccc2C1c1ccccc1], the “ln(avg k)” value in series [1] (setting [4]) and in series [1] (setting [5]) was -15.442 throughout. Moreover, the NUDT7 % labeling in series [2] is reported as 69%. Also, in series [3], the OTUB2 % labeling is given as 0%.
Consider `CC1CCCCC1N(C)C(=O)CCl` (centres unmarked) [PCM-0103026, CC1CCCCC1N(C)C(=O)CCl], for which the “ln(avg k)” value in series [1] (setting [4]) and in series [1] (setting [5]) was -15.777 in each case. For the same molecule, the NUDT7 % labeling in series [2] is given as 12%. Moreover, the OTUB2 % labeling in series [3] was 0%.
With `COC(=O)c1ccc(C)c(NC(=O)CCl)c1` [PCM-0103027, COC(=O)c1ccc(C)c(NC(=O)CCl)c1], the “ln(avg k)” value in series [1] (setting [4]) and in series [1] (setting [5]) was -16.113 in each case. Further, the NUDT7 % labeling in series [2] is given as 5%. Further, the OTUB2 % labeling in series [3] is recorded as 0%.
Take `Cc1ccc(NC(=O)CCl)c(F)c1` [PCM-0103028, Cc1ccc(NC(=O)CCl)c(F)c1]: the “ln(avg k)” value in series [1] (setting [4]) and in series [1] (setting [5]) was -16.314 in each case. Moreover, the NUDT7 % labeling in series [2] is reported as 0%. Besides, the OTUB2 % labeling in series [3] was 14%.
With `CC(NC(=O)CCl)c1ccc2c(c1)OCO2` (centres unmarked) [PCM-0103030, CC(NC(=O)CCl)c1ccc2c(c1)OCO2], the “ln(avg k)” value in series [1] (setting [4]) and in series [1] (setting [5]) was -16.554 throughout. Moreover, the NUDT7 % labeling in series [2] is 12%. Moreover, the OTUB2 % labeling in series [3] was 28%.
Consider `Cc1ccc2nc(NC(=O)CCl)sc2c1` [PCM-0103031, Cc1ccc2nc(NC(=O)CCl)sc2c1], for which the “ln(avg k)” value in series [1] (setting [4]) and in series [1] (setting [5]) was -15.473 each time. In series [2], the NUDT7 % labeling is 88%. Further, in series [3], the OTUB2 % labeling was 18%.
Consider `O=C(CCl)N1CCN(c2cccc(Cl)c2)CC1` [PCM-0103032, O=C(CCl)N1CCN(c2cccc(Cl)c2)CC1], for which the “ln(avg k)” value in series [1] (setting [4]) and in series [1] (setting [5]) was -15.657 in each case. The NUDT7 % labeling in series [2] is given as 22%. The OTUB2 % labeling in series [3] is 21%.
Turning to `N#Cc1cccc(NC(=O)CCl)c1` [PCM-0103033, N#Cc1cccc(NC(=O)CCl)c1], the “ln(avg k)” value in series [1] (setting [4]) and in series [1] (setting [5]) was -15.647 each time. The NUDT7 % labeling in series [2] is on record as 0%. Further, in series [3], the OTUB2 % labeling is 23%.
As to `CC(NC(=O)CCl)c1ccc(F)cc1F` (centres unmarked) [PCM-0103035, CC(NC(=O)CCl)c1ccc(F)cc1F], the “ln(avg k)” value in series [1] (setting [4]) and in series [1] (setting [5]) was -15.881 each time. Further, in series [2], the NUDT7 % labeling was 15%. Besides, the OTUB2 % labeling in series [3] is reported as 34%.
As for `O=C(CCl)NC(=O)NCC(F)(F)F` [PCM-0103037, O=C(CCl)NC(=O)NCC(F)(F)F], the “ln(avg k)” value in series [1] (setting [4]) and in series [1] (setting [5]) was -15.772 in each case. In addition, the NUDT7 % labeling in series [2] was 0%. For the same molecule, in series [3], the OTUB2 % labeling is 30%.
For `O=C(CCl)N1CC=C(c2ccccc2)CC1` [PCM-0103038, O=C(CCl)N1CC=C(c2ccccc2)CC1], the “ln(avg k)” value in series [1] (setting [4]) and in series [1] (setting [5]) was -16.846 throughout. In addition, the NUDT7 % labeling in series [2] was 0%. Moreover, the OTUB2 % labeling in series [3] was 9%.
As for `O=C(CCl)Nc1ccc(F)cc1Cl` [PCM-0103040, O=C(CCl)Nc1ccc(F)cc1Cl], the “ln(avg k)” value in series [1] (setting [4]) and in series [1] (setting [5]) was -16.348 throughout. In series [2], the NUDT7 % labeling is listed as 0%. In addition, the OTUB2 % labeling in series [3] is reported as 0%.
